Experimental findings from patent publication US11780845B2 (Relay Therapeutics, Inc., priority 2019, dated 2023) are described below.

One assay deals with FGFR2 (Homo sapiens (Human), UniProt P21802). As to the kind of experiment: FGFR2 Biochemical Caliper Assay. The protocol: Compounds of the present invention were also tested in a FGFR2 Biochemical Caliper Assay. Compounds were prepared in 10 mM DMSO solution and serially diluted into 11 concentrations by 3-fold dilution. […] 5 uL of ATP solution (100 uM) was added to start the reaction and the plate was incubated for 90 minutes, then 70 uL of stopping buffer (0.5M EDTA) was added to terminate the reaction. Each well was analyzed using EZ reader.

A further assay deals with SNU16 cells. Kind of assay: SNU16 Cancer Cell Line Proliferation Assay. Particulars: Homo sapiens; SNU-16 cells. It is filed as cell-based. The method in brief:
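SNU16 cells were seeded, held 24 h at 37 degrees, then dosed with an 11-point 3-fold dilution series prepared from a 10 mM DMSO stock. After 96 h incubation, viability was read by CellTiter Glo luminescence.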

FGFR2, sequence (P21802 22-821): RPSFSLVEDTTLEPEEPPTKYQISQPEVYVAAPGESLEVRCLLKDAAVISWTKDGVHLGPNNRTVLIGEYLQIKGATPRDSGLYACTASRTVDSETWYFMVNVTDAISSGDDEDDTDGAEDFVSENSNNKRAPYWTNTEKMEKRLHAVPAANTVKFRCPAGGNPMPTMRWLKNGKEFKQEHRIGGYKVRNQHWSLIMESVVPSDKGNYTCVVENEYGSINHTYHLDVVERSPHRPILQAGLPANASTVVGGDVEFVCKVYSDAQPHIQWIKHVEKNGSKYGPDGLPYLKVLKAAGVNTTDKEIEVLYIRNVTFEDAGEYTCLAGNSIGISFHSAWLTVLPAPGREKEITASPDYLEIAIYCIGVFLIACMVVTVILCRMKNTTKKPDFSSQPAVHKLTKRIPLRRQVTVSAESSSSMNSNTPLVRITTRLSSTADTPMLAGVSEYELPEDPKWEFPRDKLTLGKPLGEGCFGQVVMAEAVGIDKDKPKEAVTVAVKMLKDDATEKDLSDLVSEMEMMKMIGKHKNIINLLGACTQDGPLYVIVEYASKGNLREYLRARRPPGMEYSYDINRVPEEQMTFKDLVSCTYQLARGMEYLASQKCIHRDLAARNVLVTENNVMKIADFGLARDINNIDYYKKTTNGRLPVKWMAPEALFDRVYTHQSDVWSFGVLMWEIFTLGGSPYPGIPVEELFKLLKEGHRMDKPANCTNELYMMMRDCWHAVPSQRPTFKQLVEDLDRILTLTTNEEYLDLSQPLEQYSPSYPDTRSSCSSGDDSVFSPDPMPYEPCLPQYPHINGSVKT

Take `C/C=C/C(=O)N1CCC(c2c(-c3ccc(Oc4cccc(C)n4)cc3)c3c(N)ncnc3n2C)C1` (stereo not shown) [Example 692]: the IC50 against FGFR2 and in the assay on SNU16 cells was 1000 to 100000 nM in each case.

Turning to `C=CC(=O)N1CCC(n2cc(-c3c(-c4ccc(Oc5cc(C)ccn5)cc4)c4c(N)ncnc4n3C)cn2)CC1` [Example 631], the IC50 against FGFR2 and with SNU16 cells was 100 to 250 nM each time.

As for `C=C(C)C(=O)Nc1ccc(-c2c(-c3ccc(Oc4cccc(C)n4)cc3)c3c(N)ncnc3n2C)cc1OC` [Example 344], the values for the IC50 at FGFR2 and in the assay with SNU16 cells were 100 to 250 nM and at most 100 nM, respectively.

In the case of `C=C(C)C(=O)Nc1ccc(-c2c(-c3ccc(Oc4cccc(C)n4)cc3)c3c(N)ncnc3n2C2CC(O)C2)cc1` (stereo not shown) [Example 90], the values for the IC50 against FGFR2 and with SNU16 cells were under 100 nM and at most 100 nM, respectively.

For the compound `C=CC(=O)N1CCC(c2c(C3=CCC(CO)CC3)c3c(N)ncnc3n2C)C1` (stereo not shown) [Example 781], the IC50 on FGFR2 and with SNU16 cells was 1000 to 100000 nM each time.

`C=C(C)C(=O)Nc1ccc(-c2c(-c3ccc(C(=O)NCC(C)(C)CO)cc3)c3c(N)ncnc3n2C)cc1` [Example 331]: the IC50 (commonly the concentration at which inhibition is half-maximal) was under 100 nM at FGFR2 and at most 100 nM in the assay on SNU16 cells.

Regarding `C=CC(=O)N1CC=C(c2c(-c3ccc(OC)cc3)c3c(N)ncnc3n2C)CC1` [Example 654], the half-inhibitory concentration (IC50) against FGFR2 is under 100 nM; in the assay with SNU16 cells it was at most 100 nM.

For the compound `C=CC(=O)N1CCC(n2cc(-c3c(-c4ccc(Oc5cccc(C)n5)cc4)c4c(N)ncnc4n3C)cn2)CC1` [Example 608], the IC50 was under 100 nM against FGFR2 and at most 100 nM in the assay on SNU16 cells.

Turning to `C=CC(=O)Nc1ccc(-c2c(-c3ccc(Oc4cccc(C)n4)cc3)c3c(N)ncnc3n2C)cc1OC` [Example 14], the results for the IC50 against FGFR2 and in the assay on SNU16 cells were under 100 nM and at most 100 nM, respectively.

For `C=CC(=O)N1CC=C(c2c(-c3ccc(Oc4ncccn4)cc3)c3c(N)ncnc3n2C)C1` [Example 686], the IC50 on FGFR2 was under 100 nM; with SNU16 cells it was at most 100 nM.

As for `C=C(C)C(=O)Nc1ccc(-c2c(-c3ccc(C(=O)N4CCC[C@H]4COC)cc3)c3c(N)ncnc3n2C)cc1` [Example 357], the IC50 was under 100 nM against FGFR2 and at most 100 nM in the assay on SNU16 cells.

For the compound `CC#CC(=O)Nc1ccc(-c2[nH]c3ncnc(N)c3c2-c2ccc(Oc3cccc(C)n3)c(OC)c2)cc1` [Example 787], the half-maximal inhibitory concentration (IC50) at FGFR2 was under 100 nM; with SNU16 cells it was at most 100 nM.

Regarding `C=CC(=O)N1CCC(c2c(-c3ccc(C(O)C4CC4)cc3)c3c(N)ncnc3n2C)C1` (stereo not shown) [Example 790], the IC50 against FGFR2 lay within 250 to 1000 nM; in the assay with SNU16 cells, 1000 to 100000 nM.

For `C=CC(=O)Nc1ccc(-c2c(-c3ccc(Oc4ncccn4)c(OCC)c3)c3c(N)ncnc3n2C)cc1` [Example 51], the 50% inhibitory concentration (IC50) is under 100 nM against FGFR2 and at most 100 nM with SNU16 cells.

With `C=C(C)C(=O)Nc1ccc(-c2c(-c3ccc(C(=O)NCC(F)(F)F)cc3)c3c(N)ncnc3n2C)cc1` [Example 248], the concentration for half-maximal inhibition (IC50) at FGFR2 was under 100 nM; in the assay on SNU16 cells, at most 100 nM.

Consider `C=CC(=O)N1CCC(c2c(-c3ccc(Oc4ccccn4)cc3)c3c(N)ncnc3n2C)CC1` [Example 701], for which the IC50 at FGFR2 was under 100 nM; in the assay with SNU16 cells it was at most 100 nM.

In the case of `C=CC(=O)N1CCC(c2c(-c3ccc(C(=O)N4CCC4)c(F)c3)c3c(N)ncnc3n2C)C1` (stereo not shown) [Example 727], the concentration for half-maximal inhibition (IC50) against FGFR2 and with SNU16 cells was 1000 to 100000 nM each time.

As for `C=C(C)C(=O)Nc1ccc(-c2c(-c3ccc(C(=O)N4CC5CC4C5)cc3)c3c(N)ncnc3n2C)c(F)c1` [Example 463], the IC50 against FGFR2 was under 100 nM; in the assay with SNU16 cells, at most 100 nM.

Regarding `C=CC(=O)N(C)C1CC(n2cc(-c3c(-c4ccc(Oc5cccc(C)n5)cc4)c4c(N)ncnc4n3C)cn2)C1` (stereo not shown) [Example 628], the half-maximal inhibitory concentration (IC50) on FGFR2 was under 100 nM; in the assay on SNU16 cells, at most 100 nM.

In the case of `C=CC(=O)N1CCC(c2c(-c3ccc(Cn4ccc(C)n4)cc3)c3c(N)ncnc3n2C)C1` (stereo not shown) [Example 776], the results for the IC50 against FGFR2 and with SNU16 cells were under 100 nM and at most 100 nM, respectively.

Consider `C=C(C)C(=O)Nc1ccc(-c2c(-c3ccc(C(=O)NCC4CCCO4)cc3)c3c(N)ncnc3n2C)cc1` (stereo not shown) [Example 376], for which the IC50 against FGFR2 was under 100 nM; with SNU16 cells it was at most 100 nM.

`C=CC(=O)N1CCC(c2c(-c3cnn(-c4cccnc4)c3)c3c(N)ncnc3n2C)C1` (stereo not shown) [Example 778]: the concentration for half-maximal inhibition (IC50) was under 100 nM on FGFR2 and at most 100 nM with SNU16 cells.

Turning to `C=C(C)C(=O)Nc1ccc(-c2c(-c3ccc(C(=O)N4CCC5CC5C4)cc3)c3c(N)ncnc3n2C)cc1` (stereo not shown) [Example 228], the figures for the IC50 at FGFR2 and in the assay on SNU16 cells were under 100 nM and at most 100 nM, respectively.

For `C=CC(=O)Nc1ccc(-c2[nH]c3ncnc(N)c3c2-c2ccc(C(=O)N3CCCC3)cc2)cc1` [Example 786], the IC50 against FGFR2 lay in the range of 250 to 1000 nM; in the assay on SNU16 cells it was 1000 to 100000 nM.

Regarding `C=C(C)C(=O)Nc1ccc(-c2[nH]c3ncnc(N)c3c2-c2ccc(C(=O)N3CCCC3)cc2)cc1` [Example 796], the IC50 against FGFR2 was under 100 nM; with SNU16 cells, at most 100 nM.

For `C=CC(=O)Nc1ccc(-c2c(-c3ccc(Oc4ccc(Cl)c(C)n4)cc3)c3c(N)ncnc3n2C)cc1` [Example 123], the IC50 at FGFR2 was under 100 nM; in the assay on SNU16 cells, at most 100 nM.

`C=C(C)C(=O)Nc1ccc(-c2c(-c3ccc(Cn4nccc4C)cc3)c3c(N)ncnc3n2C)cc1` [Example 266]: the figures for the IC50 at FGFR2 and with SNU16 cells were 1000 to 100000 nM and 250 to 1000 nM, respectively.

`C=CC(=O)N1CCC(c2c(-c3ccc(Oc4ncccn4)cc3)c3c(N)ncnc3n2C)CC1` [Example 696]: the IC50 on FGFR2 was in the range of 250 to 1000 nM; in the assay on SNU16 cells, 100 to 250 nM.

As for `Cn1c(-c2ccc(NC(=O)C3=CCC3)cc2)c(-c2ccc(C(=O)NCC3CCC3)c(F)c2)c2c(N)ncnc21` [Example 590], the IC50 at FGFR2 is under 100 nM; in the assay on SNU16 cells, at most 100 nM.

For `C=C(C)C(=O)Nc1ccc(-c2c(-c3ccc(C(=O)NCC(C)C)cc3)c3c(N)ncnc3n2C)cc1` [Example 307], the results for the IC50 on FGFR2 and in the assay on SNU16 cells were under 100 nM and at most 100 nM, respectively.

Consider `C=CC(=O)Nc1ccc(-c2c(-c3ccc(Oc4ncccn4)c(C(F)(F)F)c3)c3c(N)ncnc3n2C)cc1` [Example 47], for which the values for the IC50 against FGFR2 and in the assay on SNU16 cells were under 100 nM and at most 100 nM, respectively.

For `C=CC(=O)N1CCC(c2c(-c3ccc(N(C)C4CCOCC4)cc3)c3c(N)ncnc3n2C)C1` (stereo not shown) [Example 791], the IC50 against FGFR2 and in the assay on SNU16 cells was 250 to 1000 nM throughout.

As to `C=C(C)C(=O)Nc1ccc(-c2c(-c3ccc(C(=O)N4CCCCC4=O)cc3)c3c(N)ncnc3n2C)cc1` [Example 236], the IC50 against FGFR2 and in the assay on SNU16 cells was 100 to 250 nM in each case.

Regarding `C=CC(=O)N1CC[C@H](c2c(-c3ccc(Oc4ncccn4)cc3)c3c(N)ncnc3n2C)C1` (single isomer, unassigned) [Example 698], the IC50 at FGFR2 was 250 to 1000 nM; in the assay on SNU16 cells it was 100 to 250 nM.

`C=CC(=O)N1CCC(c2c(-c3ccc(Oc4ccc(C(F)(F)F)cn4)cc3)c3c(N)ncnc3n2C)C1` (stereo not shown) [Example 759]: the 50% inhibitory concentration (IC50) against FGFR2 and with SNU16 cells was 250 to 1000 nM in each case.

On to `C=C(C)C(=O)Nc1ccc(-c2c(-c3ccc(C(=O)N4CCC[C@H](OC)C4)cc3)c3c(N)ncnc3n2C)cc1` [Example 353], for which the IC50 was 1000 to 100000 nM on FGFR2 and 250 to 1000 nM in the assay with SNU16 cells.

Regarding `C=C(C)C(=O)Nc1ccc(-c2c(-c3ccc(S(=O)(=O)CCC(F)(F)F)cc3)c3c(N)ncnc3n2C)cc1` [Example 315], the IC50 against FGFR2 and with SNU16 cells was 250 to 1000 nM throughout.

`C=C(C)C(=O)Nc1ccc(-c2c(-c3ccc(C(=O)NCC(C)(C)OC)cc3)c3c(N)ncnc3n2C)cc1` [Example 306]: the IC50 against FGFR2 was under 100 nM; in the assay on SNU16 cells, at most 100 nM.
